Numbers after ± are expanded uncertainties.
Columns and labels:
[1] = refractive index (Na D-line) (dimensionless); settings: 293.1 K; 101.33 kPa; Liquid; Standard Abbe refractometry
[2] = Liquid; for mass density: 293.1 K, 101.33 kPa, Vibrating tube method; for Normal boiling temperature: Fisher boiling point apparatus

refractive index [1] | mass density [2] | Normal boiling temperature [2] | SMILES
1.37201 ± 0.0007 | 1044.3 ± 0.27 kg/m3 | 118.00 ± 0.2 °C | CC(=O)O [acetic acid]
1.42414 ± 0.00078 | 1022.04 ± 0.88 kg/m3 | 236.50 ± 0.2 °C | CCOC(=O)CCCC(=O)OCC [diethyl glutarate]
1.42014 ± 0.0007 | 1040.22 ± 0.27 kg/m3 | 217.70 ± 0.2 °C | CCOC(=O)CCC(=O)OCC [diethyl butanedioate]
1.42725 ± 0.0007 | 1007.63 ± 0.24 kg/m3 | 245.20 ± 0.2 °C | CCOC(=O)CCCCC(=O)OCC [diethyl hexanedioate]

— the NIST ThermoML archive (doi:10.1021/je7000733)
